# Measured values: patent publication US9512083B2, “Histone deacetylase 6 selective inhibitors for the treatment of bone disease” (The General Hospital Corporation, priority 2012, dated 2016)
# Entries after “also recorded” stand apart in the source; their conditions may differ.
# Assays:
# [1] = test system: acetylation of lysine on Histone H3 and Histone H4; test: Acetylation of Histone H3 and H4 in MM.1S cells; assay type: cell-based; settings: compared to SAHA
# acetylated α-tubulin = test: Acetylation of α-tubulin in MM.1S cells; assay type: cell-based; settings: increasing doses, 18 hours
# Sirtuin 2 = target: T1, Sirtuin 2 (Homo sapiens, UniProt Q8IXJ6); test: HDAC enzyme assay, Sirtuin 2; assay type: biochemical
# T1 sequence (Q8IXJ6 1-389): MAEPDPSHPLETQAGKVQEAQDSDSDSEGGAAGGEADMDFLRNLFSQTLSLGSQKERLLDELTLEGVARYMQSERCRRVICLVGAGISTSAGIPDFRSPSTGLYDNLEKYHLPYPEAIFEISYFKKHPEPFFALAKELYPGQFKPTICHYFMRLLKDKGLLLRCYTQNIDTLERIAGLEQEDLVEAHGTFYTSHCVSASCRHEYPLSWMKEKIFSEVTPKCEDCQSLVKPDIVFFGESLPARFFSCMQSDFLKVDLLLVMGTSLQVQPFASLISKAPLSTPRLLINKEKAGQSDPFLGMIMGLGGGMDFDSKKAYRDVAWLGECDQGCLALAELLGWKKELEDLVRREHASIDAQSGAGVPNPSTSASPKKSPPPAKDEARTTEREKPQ
# acetyl-Histone H3 = test: Immunohistochemistry of acetyl-Histone H3 in CD138+ MM patient cells; assay type: cell-based, human; settings: treated vs control
# [2] = test system: osteoblasts (OBLs) differentiated from BMSCs derived from MM patients; test: Alkaline phosphatase (ALP) activity assay of osteoblasts; assay type: cell-based, human; settings: Compound A 1 μM and/or bortezomib 2.5 nM, 10-14 and 21 days
# Method: Following the AlamarBlue cell viability assay, the wells were then washed twice with PBS fixed for 5 minutes and washed again with distilled water and Alkaline Phosphatase Yellow (pNPP) Liquid Substrate System for ELISA (sigma-aldrich) was added to the wells. The plates were read at OD of 405 nm after 5 minutes of incubation.
# (FIG. 1B ALP after 14 days of differentiation in BMSC derived from patient 1, FIG. 1D ALP after 21 days of differentiation in BMSC derived from the same patient, FIG. 2B ALP after 14 days of differentiation in BMSC derived from patient 2, FIG. 2D ALP after 21 days of differentiation in BMSC derived from patient 2, FIG. 3B ALP after 10 days of differentiation in BMSC derived from patient 3).
# [3] = test system: osteoclasts (OCLs) differentiated from PBMCs from MM patients; test: Osteoclastogenesis, TRAP staining; assay type: cell-based, human
# Sirtuin 1 = target: T2, Sirtuin 1 (Homo sapiens, UniProt Q96EB6); test: HDAC enzyme assay, Sirtuin 1; assay type: biochemical
# T2 sequence (Q96EB6 1-747): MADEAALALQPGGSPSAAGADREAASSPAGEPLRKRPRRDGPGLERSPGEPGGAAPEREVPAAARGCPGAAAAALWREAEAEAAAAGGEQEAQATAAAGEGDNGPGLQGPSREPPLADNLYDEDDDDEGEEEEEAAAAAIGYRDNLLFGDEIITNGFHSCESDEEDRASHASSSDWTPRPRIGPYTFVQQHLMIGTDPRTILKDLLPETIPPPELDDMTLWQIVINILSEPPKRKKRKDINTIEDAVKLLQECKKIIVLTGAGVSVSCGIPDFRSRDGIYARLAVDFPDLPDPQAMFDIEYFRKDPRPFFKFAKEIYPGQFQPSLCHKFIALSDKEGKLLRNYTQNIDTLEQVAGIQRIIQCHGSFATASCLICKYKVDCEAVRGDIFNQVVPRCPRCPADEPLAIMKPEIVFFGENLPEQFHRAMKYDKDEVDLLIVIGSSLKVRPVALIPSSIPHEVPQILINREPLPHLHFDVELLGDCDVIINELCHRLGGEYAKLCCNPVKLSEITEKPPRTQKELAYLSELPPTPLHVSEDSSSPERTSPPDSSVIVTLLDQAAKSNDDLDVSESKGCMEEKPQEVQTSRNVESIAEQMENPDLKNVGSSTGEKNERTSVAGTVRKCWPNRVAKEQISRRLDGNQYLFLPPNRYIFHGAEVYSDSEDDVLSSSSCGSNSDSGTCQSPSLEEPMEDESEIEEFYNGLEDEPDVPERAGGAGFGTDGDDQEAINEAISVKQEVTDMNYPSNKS
# [4] = test system: osteoblasts (OBLs) differentiated from BMSCs derived from MM patients; test: Alizarin red staining of calcium deposits in osteoblasts; assay type: cell-based, human; settings: OBLs differentiated in presence of Compound A and/or bortezomib, 23 days
# Description: To evaluate calcium deposition, osteoblasts were washed with PBS and fixed after 23 days of treatment and assayed by alizarin red staining (Alizarin red solution, Millipore) that specifically stains mineralization area. The mineralization areas were visualized using Nikon Labophot-2 microscope with 10×/0.25 lens equipped with SPOT-insight QE camera.
# The results shown in FIG. 4A “CTR alpha-mem” represent the BMSCs that have not been differentiated in OBL. The results shown in FIG. 4B “CRT OBL medium” represent the OBL without any treatment.
# [5] = test system: pERK, pAkt, c-fos in OCLs; test: Immunoblot of signaling pathway in OCLs; assay type: cell-based, human; settings: OCLs differentiated 10 days, treated with Compound A and or bortezomib 24 hours
# Description: Samples were then subjected to sodium dodecyl sulfate-polyacrylamide gel electrophoresis, transferred to PVDF membrane, and immunoblotted with antibodies against pAkt, Akt, and c-fos (Cell Signaling Technology, Beverly, Mass.) or phosphorylated extracellular signal-regulated kinase (pERK). Antigen-antibody complexes were detected by enhanced chemiluminescence (Amersham, Arlington Heights, Ill.). The membrane was stripped and reprobed with antitubulin antibody to ensure equal protein loading. Films were scanned and densitometric analysis performed.
# [6] = test system: osteoblasts (OBLs) differentiated from BMSCs derived from MM patients; test: AlamarBlue viability assay of osteoblasts; assay type: cell-based, human; settings: Compound A 1 μM and/or bortezomib 2.5 nM, 10-14 and 21 days
# Method: Alamarblue was added to the wells to a final concentration of 10% alamar blue and the plates were incubated at […] and 5% CO2 for 1 to 4 hours. The plates were read at absorbance (OD) of 530 nm and 600 nm. The delta OD was recorded and the date were plotted as percentage of control.
# The control (ctr) represents the OBL without any treatment. Cell viability was assessed by Alamarblue assay (a redox indicator that yields a colorimetric change and a fluorescent signal in a response to a metabolic activity) (Invitrogen, Carlsbad, Calif.). […] (FIG. 1A alarm blue after 14 days of differentiation in BMSC derived from patient 1, FIG. 1C alarm blue after 21 days of differentiation in BMSC derived from the same patient, FIG. 2A alarm blue after 14 days of differentiation in BMSC derived from patient 2, FIG. 2C alarm blue after 21 days of differentiation in BMSC derived from patient 2, FIG. 3A alarm blue after 10 days of differentiation in BMSC derived from patient 3).
# ac-α-tubulin [7] = test: Western blot of ac-α-tubulin in CD138+ MM patient cells; assay type: cell-based, human; settings: 2 μM, 4 hours
# ac-α-tubulin [8] = test: Immunohistochemistry of ac-α-tubulin in CD138+ MM patient cells; assay type: cell-based, human; settings: treated vs control
# [9] = test system: osteoclasts differentiated from MM patient bone marrow; test: PIT formation assay (bone resorption); assay type: cell-based, human; settings: Compound A 1 μM and/or bortezomib 2.5 nM, 7 days
# Method: OC activity was assayed by bone resorption enumerating resorption pits. Briefly, mononuclear cells (1.8×10^6 cell/well) from MM patient bone marrow were cultured in a 24-well plate coated with a synthetic carbonate apatite (CaP) (Cosmo Bio Co., Ltd, Tokio, Japan) and stimulated with RANKL (25 ng/ml) and M-CSF (25 ng/ml). […] On day 7 the conditioned medium was removed from each well and the wells were treated with 5% sodium hypochlorite for five minutes. After washing and drying, resorption pits were photographed by light microscopy and quantified by Image J software. Each pit area assay was performed at least 3 times with BM from different donors.
smiles,measurement,setting,value
"O=C(CCCCCCNC(=O)c1cnc(N(c2ccccc2)c2ccccc2)nc1)NO [Compound A, 2-(diphenylamino)-N-(7-(hydroxyamino)-7-oxoheptyl)pyrimidine-5-carboxamide]",acetylation of lysine on Histone H3 and Histone H4,[1],less potent acetylation of lysine on Histone H3 and Histone H4 compared to SAHA
same,acetylated α-tubulin,acetylated α-tubulin,dose dependent significant increase in the acetylated α-tubulin was observed even in the presence of low doses (0.04 μM)
same,IC50,Sirtuin 2; Sirtuin 2,> 10 µM
same,IC50,"Sirtuin 2; sirtuin 2, text (minimal activity)",> 1 µM
same,"acetyl-Histone H3, immunohistochemistry (IHC)",acetyl-Histone H3,without any significant increase in acetyl-Histone H3
same,OBLs function (alkaline phosphatase (ALP) activity),[2],increases OBLs function; also recorded: increases the alkaline phosphate activity
same,number of OCLs (multinucleated TRAP-positive cells) per well,"[3]; compared with bortezomib or untreated control wells, 7 and 14 days",significantly decreases the number of OCLs; also recorded: inhibits osteoclastogenesis
same,"number of OCLs (multinucleated TRAP-positive cells) per well, dose dependence",[3]; days 7 and 14 of osteoclast differentiation,decreases the number of OCLs (multinucleated TRAP-positive cells) per well in a dose dependent manner; also recorded: inhibits osteoclastogenesis in a dose-dependent manner
same,IC50,Sirtuin 1; Sirtuin 1,> 10 µM
same,IC50,"Sirtuin 1; sirtuin 1, text (minimal activity)",> 1 µM
same,calcium deposits (Alizarin red staining),[4],increases calcium deposits in OBL cells
same,"pERK, pAkt and c-fos expression (immunoblot)",[5],"downregulation of pERK, pEKT and cFOS expression"
same,viability of OBLs (AlamarBlue),[6],does not induce cytotoxicity on OBL cells; also recorded: does not affect the viability of osteoblasts (OBLs)
same,"ac-α-tubulin, Western blot",ac-α-tubulin [7],significant increase of ac-α-tubulin in treated compared to control cells
same,"ac-α-tubulin, immunohistochemistry (IHC)",ac-α-tubulin [8],significant increase of ac-α-tubulin was observed in treated compared to control cells
same,PIT formation (resorption pits),[9],significantly arrested PIT formation
